Key:
MAO = MAO inhibitory activity (Holts method, rat liver mitochondrial enzyme); format: biochemical
Procedure: (§1) Male SD rats were sacrificed by decapitation, operated on ice, their livers were removed, and the liver surface was washed with precooled phosphate buffer. The liver was cut into pieces, and after washing (using PBS), 20 mL of 0.3 M sucrose buffer was added for homogenization. After fully homogenized, it was balanced by a tray balance. Low–temperature differential centrifugation was performed, and the obtained SD rat liver mitochondrial concentrate was the experimental monoamine oxidase stock solution, and was stored in a −80 °C refrigerator.
(§2) Added 25 µL of enzyme dilution solution and 25 µL of test derivatives (control group plus rasagiline, blank group plus 10% DMSO) to 96–well plate, incubated at 37 °C for 1 h, then 120 µL of substrate was added, 80 µL of chromogenic solution was added, incubated at 37 °C for 30 min, and its absorbance measured at 490 nm. In addition, in order to exclude the influence of protein, a protein control group was established, only the enzyme dilution was added, and the rest were replaced with PBS, and the absorbance value was detected at a wavelength of 490 nm. The inhibition rate of each concentration was substituted into the calculation software GraphPad Prism 8 to calculate the IC50 value.

MAO–A = target: T1, MAO–A (Rattus norvegicus, UniProt P21396); test: MAO–A inhibitory activity (enzyme pre-incubated with pargyline); format: biochemical
T1 construct: the obtained SD rat liver mitochondrial concentrate was the experimental monoamine oxidase stock solution; from tissue; host or cells: male SD rat liver mitochondria
T1 sequence (P21396 1-526): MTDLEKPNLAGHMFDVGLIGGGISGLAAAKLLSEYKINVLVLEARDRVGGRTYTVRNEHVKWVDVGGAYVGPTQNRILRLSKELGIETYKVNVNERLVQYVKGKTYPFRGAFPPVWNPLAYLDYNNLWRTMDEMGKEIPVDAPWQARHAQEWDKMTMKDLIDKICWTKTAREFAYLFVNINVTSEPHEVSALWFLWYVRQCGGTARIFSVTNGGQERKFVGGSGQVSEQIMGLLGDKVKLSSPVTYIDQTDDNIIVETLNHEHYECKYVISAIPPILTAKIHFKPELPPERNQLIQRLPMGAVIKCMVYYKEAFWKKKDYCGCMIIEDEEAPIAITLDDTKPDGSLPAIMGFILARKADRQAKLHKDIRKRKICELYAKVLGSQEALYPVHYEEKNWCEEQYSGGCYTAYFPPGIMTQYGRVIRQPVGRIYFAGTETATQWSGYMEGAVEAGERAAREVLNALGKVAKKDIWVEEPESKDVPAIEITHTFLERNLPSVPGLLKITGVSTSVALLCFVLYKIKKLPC
Procedure: as §1, §2
(§3) The inhibition rate of each concentration was substituted into the calculation software GraphPad Prism 8 to calculate the IC50 value.

MAO–B = target: T2, MAO–B (Rattus norvegicus, UniProt P19643); test: MAO–B inhibitory activity (enzyme pre-incubated with chlorgiline); format: biochemical
T2 construct: the obtained SD rat liver mitochondrial concentrate was the experimental monoamine oxidase stock solution; from tissue; host or cells: male SD rat liver mitochondria
T2 sequence (P19643 1-520): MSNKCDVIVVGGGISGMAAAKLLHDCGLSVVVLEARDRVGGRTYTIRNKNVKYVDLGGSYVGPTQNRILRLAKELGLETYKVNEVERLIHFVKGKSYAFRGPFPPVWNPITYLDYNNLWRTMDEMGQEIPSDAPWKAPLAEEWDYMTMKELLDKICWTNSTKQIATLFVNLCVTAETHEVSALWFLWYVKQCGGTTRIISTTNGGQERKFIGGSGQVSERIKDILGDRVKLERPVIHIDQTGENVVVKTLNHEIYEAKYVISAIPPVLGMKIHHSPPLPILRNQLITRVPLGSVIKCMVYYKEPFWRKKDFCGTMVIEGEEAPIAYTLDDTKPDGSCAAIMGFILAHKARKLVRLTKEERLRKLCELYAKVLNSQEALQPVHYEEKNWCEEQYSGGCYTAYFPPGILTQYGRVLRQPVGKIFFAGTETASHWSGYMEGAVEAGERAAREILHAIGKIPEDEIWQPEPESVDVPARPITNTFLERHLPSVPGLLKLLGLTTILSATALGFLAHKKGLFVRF
Procedure: as §1, §2, §3

AChE = AChE (Homo sapiens, UniProt P22303); test: biochemical; format: biochemical
AChE, sequence (P22303 32-614): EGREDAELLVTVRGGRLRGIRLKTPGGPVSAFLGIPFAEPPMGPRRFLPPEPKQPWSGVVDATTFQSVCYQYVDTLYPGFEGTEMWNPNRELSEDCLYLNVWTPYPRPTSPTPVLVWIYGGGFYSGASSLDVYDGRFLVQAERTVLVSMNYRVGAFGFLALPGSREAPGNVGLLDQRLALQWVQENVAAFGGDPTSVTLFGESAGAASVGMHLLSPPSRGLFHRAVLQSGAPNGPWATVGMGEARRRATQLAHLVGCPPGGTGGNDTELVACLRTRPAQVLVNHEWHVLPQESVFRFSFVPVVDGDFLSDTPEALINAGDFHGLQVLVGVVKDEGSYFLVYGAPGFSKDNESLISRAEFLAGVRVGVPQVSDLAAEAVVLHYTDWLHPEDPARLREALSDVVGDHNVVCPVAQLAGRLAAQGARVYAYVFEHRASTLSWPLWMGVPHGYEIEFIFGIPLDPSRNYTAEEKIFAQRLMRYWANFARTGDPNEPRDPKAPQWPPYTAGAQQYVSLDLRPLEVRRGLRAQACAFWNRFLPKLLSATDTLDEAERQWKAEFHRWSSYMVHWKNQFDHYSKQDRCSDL
Procedure: (§4) Each concentration was tested three times in parallel, and 96 empty plates were taken, and 20 µL of the test sample or positive drug (10% DMSO was added to the blank control), 40 µL of AChE or BuChE (0.2 U/mL) and 100 µL of DTNB (0.001 mol/L) were added in turn, mixed well and incubated in a constant temperature water bath at 37 °C for 15 min.

BuChE = BuChE (Homo sapiens, UniProt P06276); test: biochemical; format: biochemical
BuChE, sequence (P06276 29-602): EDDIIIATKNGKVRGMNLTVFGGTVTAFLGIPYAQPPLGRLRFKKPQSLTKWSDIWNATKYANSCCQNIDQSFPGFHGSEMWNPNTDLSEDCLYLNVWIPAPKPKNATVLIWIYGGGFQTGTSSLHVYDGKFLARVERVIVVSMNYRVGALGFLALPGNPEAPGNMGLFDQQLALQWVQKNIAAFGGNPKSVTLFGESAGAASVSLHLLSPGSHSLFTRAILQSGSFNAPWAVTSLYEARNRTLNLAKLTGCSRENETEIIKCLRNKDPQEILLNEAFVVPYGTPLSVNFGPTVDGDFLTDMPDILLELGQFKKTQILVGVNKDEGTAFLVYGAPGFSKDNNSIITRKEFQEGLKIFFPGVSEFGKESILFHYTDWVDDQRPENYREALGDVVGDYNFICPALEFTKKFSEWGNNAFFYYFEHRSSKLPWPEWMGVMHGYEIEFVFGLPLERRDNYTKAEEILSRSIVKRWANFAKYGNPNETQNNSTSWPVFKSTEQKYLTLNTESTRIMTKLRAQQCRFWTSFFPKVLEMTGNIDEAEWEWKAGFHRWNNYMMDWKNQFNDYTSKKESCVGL
Procedure: as §4

ICR male mice = test: Forced swimming test (FST); format: in vivo; settings: i.p., 30 mg/kg; for Duration of Immobility: 30 min after administration, mean ± SEM (n = 8); for DID (%) percentage decrease in immobility duration: vs control
Procedure: Pharmacological experiments of antidepressant activity used FST in mice, fluoxetine hydrochloride was used as a positive control, and the vehicle solvent PFG–400 was used as a blank control. The experiment used ICR male mice (20 ± 2 g). Six benzothiazole–quinoline derivatives were dissolved in polyethylene glycol–400, and 30 min after administration (i.p., 30 mg/kg), the mice were each placed in a glass cylinder, recording the time of immobility. Duration of immobility outcomes is expressed as mean ± SEM. The t-test was used to make comparisons between groups.

Cytotoxicity, MTT method = format: cell-based; settings: mouse, L929 cells, 0–100 μM, read-out: cell viability (MTT)
Procedure: L929 (Shanghai Cell Bank, Chinese Academy of Sciences) cells were cultured in 10% fetal bovine serum: penicillin–streptomycin solution: MEM mixed medium with serum–free medium (10:1:90), and subcultured in a 5% carbon dioxide cell incubator at 37 °C, and the medium changed every other day.
In this experiment, L929 cells in the logarithmic growth phase were selected, and the cell density was adjusted to 2 × 10^4 cells per well. The cells were seeded in 96–well plates, and the 96–well plates seeded with cells were cultured in a 37 °C 5% carbon dioxide cell incubator. After 24 h, different concentrations of the test compound medium (6.5, 12.5, 25, 50, 100 μM) were added, and the blank group was added with drug–free medium, shaken gently, and placed at 37 °C 5%. The cells were cultured in a carbon dioxide cell incubator for 24 h, and each concentration was replicated 6 times. After 24 h, 20 μL of […] MTT solution (prepared in PBS with pH = 7.6) was added in the dark, and cultured in the cell incubator for another 4 h. After 4 h, the 96–well plate was taken out and the original medium was discarded. Added 160 μL DMSO, put it on a shaker and mixed well for about 10 min, used a microplate reader to measure its absorbance at 490 nm, recorded the results and analyzed.

Structure (SMILES) | IC50 (MAO) | Inhibition Rate of MAO (%) (MAO) | Inhibition Rate (%) MAO–A (MAO–A) | IC50 (MAO–B) | Inhibition Rate (%) MAO–B (MAO–B) | IC50 (AChE) | Inhibition Rate (%) AChE (AChE) | IC50 (BuChE) | Inhibition Rate (%) BuChE (BuChE) | Duration of Immobility (ICR male mice) | DID (%) percentage decrease in immobility duration (ICR male mice) | viability at 24 h (Cytotoxicity, MTT method)
O=C(CN1CCc2ccccc2[C@H]1c1ccccc1)Nc1nc2c(Br)cccc2s1 [Compound 4d, (R)–N–(4–bromobenzo[d]thiazol–2–yl)–2–(1–phenyl–3,4–dihydroisoquinolin–2(1H)–yl)acetamide] | 64.8 ± 4.2 µM | 43.37% | 18.05% | 3.26 ± 2.78 µM | 46.00% | > 150 µM | 0.55% | 14.6 ± 5.81 µM | 77.76% | 62.3 ± 14.0 s | 65.06% | > 90%
O=C(CN1CCc2ccccc2[C@H]1c1ccccc1)Nc1nc2ccc(Br)cc2s1 [Compound 4f, (R)–N–(6–bromobenzo[d]thiazol–2–yl)–2–(1–phenyl–3,4–dihydroisoquinolin–2(1H)–yl)acetamide] | 41.8 ± 2.94 µM | 24.15% | 15.04% | 47.6 ± 1.82 µM | 46.49% | > 150 µM | 1.10% | > 150 µM | 32.32% | 71.7 ± 4.9 s | 59.83% | > 90%
O=C(CN1CCc2ccccc2[C@H]1c1ccccc1)Nc1nc2cc(Cl)ccc2s1 [Compound 4b, (R)–N–(5–chlorobenzo[d]thiazol–2–yl)–2–(1–phenyl–3,4–dihydroisoquinolin–2(1H)–yl)acetamide] | 38.8 ± 3.76 µM | 39.27% | 3.01% | 40.8 ± 2.67 µM | 39.15% | > 150 µM | 4.42% | 17.6 ± 1.78 µM | 69.44% | 85.7 ± 8.1 s | 51.98% | > 90%
Cc1cccc2sc(NC(=O)CN3CCc4ccccc4[C@H]3c3ccccc3)nc12 [Compound 4g, (R)–N–(4–methylbenzo[d]thiazol–2–yl)–2–(1–phenyl–3,4–dihydroisoquinolin–2(1H)–yl)acetamide] | 14.8 ± 5.45 µM | 57.11% | 9.03% | 12.1 ± 3.47 µM | 51.39% | > 150 µM | 1.10% | 30.3 ± 4.59 µM | 72.64% | 69.0 ± 15.7 s | 61.32% | > 90%
Cc1ccc2nc(NC(=O)CN3CCc4ccccc4[C@H]3c3ccccc3)sc2c1 [Compound 4i, (R)–N–(6–methylbenzo[d]thiazol–2–yl)–2–(1–phenyl–3,4–dihydroisoquinolin–2(1H)–yl)acetamide] | 18.5 ± 1.69 µM | 26.46% | 2.51% | 16.5 ± 3.59 µM | 61.17% | > 150 µM | 2.21% | 19.2 ± 2.72 µM | 47.68% | 83.8 ± 13.6 s | 53.05% | > 90%
O=C(CN1CCc2ccccc2[C@H]1c1ccccc1)Nc1nc2ccc(Cl)cc2s1 [Compound 4c, (R)–N–(6–chlorobenzo[d]thiazol–2–yl)–2–(1–phenyl–3,4–dihydroisoquinolin–2(1H)–yl)acetamide] | 45.9 ± 2.66 µM | 21.59% | 12.03% | 9.13 ± 4.17 µM | 48.45% | > 150 µM | 1.10% | > 150 µM | 68.80% | 77.0 ± 18.3 s | 56.84% | > 90%

Source: paper PMC9782539, “Synthesis, Characterization and Biological Evaluation of Benzothiazole–Isoquinoline Derivative” (Molecules, 2022)
